Measured values from US10617693B2, “Methods of treating and/or preventing actinic keratosis” (Athenex, Inc., priority 2017, dated 2020).

Key:
Type in all cases: in vivo, human
[1] = system: AK lesions on the dorsal forearm; experiment: Phase 1 study KX01-AK-01-US: AK lesion counts and clearance
Experimental: KX-01 was administered topically on treatment days. […] Standardized photography of the treatment area was performed.

[2] = system: AK lesions on the face or scalp; experiment: Phase 2a study KX01-AK-002: AK lesion counts and clearance at day 57, 0.5 mg KX-01 on 25 cm^2; conditions: for Subjects with 100% clearance of AK lesions on day 57 / Subjects with at least 75% reduction of AK lesions on day 57 / AK lesion count, median: Cohort 1 (5-day), interim
Source text: An ongoing Phase 2a, open-label, multicenter, activity and safety study of KX-01 administered topically in subjects with AK on the face or scalp is described herein. […] Secondary objectives are to assess the activity of KX-01 administered topically during Days 1-57 based on reduction of AK lesion counts from baseline, assess the safety and tolerability and pharmacokinetics, and contrast the dose regimens (5-day treatment with 3-day treatment) in terms of activity and safety in subjects with AK on the face or scalp. This uncontrolled, nonrandomized trial is being conducted at 16 investigational sites in the United States. Enrollment is sequential for 2 cohorts of approximately 80 subjects each. Enrollment is closed for Cohort 1 and ongoing for Cohort 2. The two treatment cohorts are summarized below: • Cohort 1: 0.5 mg KX-01 administered topically to a contiguous treatment area of 25 cm^2 with 4-8 clinically typical AK lesions for 5 consecutive days • Cohort 2: 0.5 mg KX-01 administered topically to a contiguous treatment area of 25 cm^2 with 4-8 clinically typical AK lesions for 3 consecutive days
0.5 mg KX-01 is administered topically to an area of 25 cm^2 on the face or scalp by site staff on treatment days. […] AK lesion counts are recorded at baseline, days 8, 15, 29, and 57. […] Standardized photography of treatment area is performed at baseline, day 8 and day 57. Plasma samples are being collected at preplanned time points on days 1 and 5 for Cohort 1, and on days 1 and 3 for Cohort 2.
The Phase 2a trial described in Example 2a was completed with 84 eligible subjects enrolled in each of two cohorts: one cohort was subjected to the treatment for 5 consecutive days, and the other cohort was subjected to the treatment for 3 consecutive days. The results are described below and in FIG. 5.

[3] = Plasma pharmacokinetics after topical administration, LC-MS/MS
Experimental: KX-01 was tested in adult subjects with actinic keratosis of the dorsal forearm (Example 1) and actinic keratosis on the face or scalp (Examples 2a and 2b). In Example 1, the plasma pharmacokinetics (PK) of KX-01 following topical administration was evaluated by collection of plasma on days 1 and 3 of the 3-day regimens and on days 1 and 5 of the 5-day regimens (Table 12). In Examples 2a and 2b, plasma samples were collected on days 1 and 5 of Cohort 1 (Table 13). Plasma samples at similar time points were collected on days 1 and 3 of Cohort 2. KX-01 was measured in human plasma using a validated LC-MS/MS assay with a lower limit of quantification (LLOQ) of 0.1 ng/mL.

Compound: O=C(Cc1ccc(-c2ccc(OCCN3CCOCC3)cc2)cn1)NCc1ccccc1 [KX-01]
- Complete Clearance on Day 45 (100% reduction in AK lesions vs Baseline), n/N (%) ([1]; Cohort 2: 2 mg/100 cm^2 QD x3 days): 0/10
- AK lesion count, median (min, max) ([1]; Day 1 (Baseline), Cohort 1: 0.5 mg/25 cm^2 QD x3 days): 5.0 (4, 5)
- AK lesion count, median (min, max) ([1]; Day 1 (Baseline), Cohort 2: 2 mg/100 cm^2 QD x3 days): 11.5 (8, 16)
- AK lesion count, median (min, max) ([1]; Day 1 (Baseline), Cohort 3: 0.5 mg/25 cm^2 QD x5 days): 6.0 (5, 6)
- AK lesion count, median (min, max) ([1]; Day 1 (Baseline), Cohort 4: 2 mg/100 cm^2 QD x5 days): 11.0 (10, 16)
- AK lesion count, median (min, max) ([1]; Day 4, Cohort 1: 0.5 mg/25 cm^2 QD x3 days): 5.0 (4, 5)
- AK lesion count, median (min, max) ([1]; Day 4, Cohort 2: 2 mg/100 cm^2 QD x3 days): 9.0 (6, 16)
- AK lesion count, median (min, max) ([1]; Day 10, Cohort 1: 0.5 mg/25 cm^2 QD x3 days): 5.0 (4, 5)
- AK lesion count, median (min, max) ([1]; Day 10, Cohort 2: 2 mg/100 cm^2 QD x3 days): 7.0 (6, 11)
- AK lesion count, median (min, max) ([1]; Day 10, Cohort 3: 0.5 mg/25 cm^2 QD x5 days): 5.0 (5, 6)
- AK lesion count, median (min, max) ([1]; Day 10, Cohort 4: 2 mg/100 cm^2 QD x5 days): 10.0 (10, 10)
- AK lesion count, median (min, max) ([1]; Day 17, Cohort 1: 0.5 mg/25 cm^2 QD x3 days): 4.5 (3, 5)
- AK lesion count, median (min, max) ([1]; Day 17, Cohort 2: 2 mg/100 cm^2 QD x3 days): 7.0 (5, 15)
- AK lesion count, median (min, max) ([1]; Day 17, Cohort 3: 0.5 mg/25 cm^2 QD x5 days): 5.0 (4, 6)
- AK lesion count, median (min, max) ([1]; Day 17, Cohort 4: 2 mg/100 cm^2 QD x5 days): 10.0 (10, 11)
- AK lesion count, median (min, max) ([1]; Day 31, Cohort 1: 0.5 mg/25 cm^2 QD x3 days): 3.5 (1, 5)
- AK lesion count, median (min, max) ([1]; Day 31, Cohort 2: 2 mg/100 cm^2 QD x3 days): 7.0 (1, 15)
- AK lesion count, median (min, max) ([1]; Day 31, Cohort 3: 0.5 mg/25 cm^2 QD x5 days): 1.0 (0, 6)
- AK lesion count, median (min, max) ([1]; Day 31, Cohort 4: 2 mg/100 cm^2 QD x5 days): 6.0 (0, 11)
- AK lesion count, median (min, max) ([1]; Day 45, Cohort 1: 0.5 mg/25 cm^2 QD x3 days): 2.5 (0, 4)
- AK lesion count, median (min, max) ([1]; Day 45, Cohort 2: 2 mg/100 cm^2 QD x3 days): 4.0 (1, 10)
- AK lesion count, median (min, max) ([1]; Day 45, Cohort 3: 0.5 mg/25 cm^2 QD x5 days): 0.5 (0, 4)
- AK lesion count, median (min, max) ([1]; Day 45, Cohort 4: 2 mg/100 cm^2 QD x5 days): 4.5 (0, 12)
- Change in AK lesion counts over time ([1]; all 4 cohorts): reductions in mean baseline AK lesion counts over time
- Activity of 5-day versus 3-day regimen ([1]; rates of complete and partial clearance): 5-day regimen may provide better activity than the 3-day regimen
- Activity compared to Picato Phase 3 studies ([2]; 5-day regimen, cross-study tabulation): may be comparable
- Subjects with 100% clearance of AK lesions on day 57 ([2]; face, 35 subjects): 43%
- Subjects with at least 75% reduction of AK lesions on day 57 ([2]; face, 35 subjects): 60%
- Subjects with 100% clearance of AK lesions on day 57 ([2]; overall, 67 subjects): 36%
- Subjects with at least 75% reduction of AK lesions on day 57 ([2]; overall, 67 subjects): 51%
- Subjects with 100% clearance of AK lesions on day 57 ([2]; scalp, 32 subjects): 28%
- Subjects with at least 75% reduction of AK lesions on day 57 ([2]; scalp, 32 subjects): 41%
- AK lesion count, median ([2]; Day 1): 6.0
- AK lesion count, median ([2]; Day 8): 5.0
- AK lesion count, median ([2]; Day 15): 4.0
- AK lesion count, median ([2]; Day 29): 2.0
- AK lesion count, median ([2]; Day 57): 2.0
- Activity of 5-day versus 3-day regimen ([2]; Examples 1, 2a and 2b): greater activity than the 3-day regimen
- Plasma concentration, back-up sample ([3]; Day 5, 0.5 hours post-dose, back-up of the 23 ng/mL sample): BLQ
- Plasma concentration, aberrant primary sample ([3]; Day 5, 0.5 hours post-dose, likely cross contamination): 23 ng/mL
- Plasma concentration, back-up sample ([3]; Day 5, 1 hour post-dose, back-up of the 44 ng/mL sample): 0.351 ng/mL
- Plasma concentration, aberrant primary sample ([3]; Day 5, 1 hour post-dose, likely cross contamination): 44 ng/mL
- Plasma samples above the limit of quantification ([3]; KX01-AK-002, after 1 day of treatment, of 336 samples): 15
- Measurable plasma concentrations ([3]; KX01-AK-002, all except three aberrant samples): below 0.7 ng/mL
- Subjects with measurable plasma concentrations at 4 hours post-dose on Day 5 ([3]; KX01-AK-002 Cohort 1): 42 out of 84
- Subjects with quantifiable concentrations prior to the dose on Day 5 ([3]; KX01-AK-002 Cohort 1): 8 of 84
- Plasma concentration, back-up sample ([3]; back-up of the third aberrant sample): 30 ng/mL
- Plasma concentrations below the level of quantification (BLQ) ([3]; both studies): 75%
- concentration at 5 days ([3]; human, plasma, up to 5 consecutive days of topical treatment, read-out: Systemic exposure (plasma concentration)): < 1 ng/mL
- Apparent plasma concentration, aberrant sample ([3]; third aberrant sample, likely cross contamination): above 12,500 ng/mL
- Systemic exposure (plasma concentration) ([3]; up to 5 consecutive days of topical treatment): < 1 ng/mL
